Measurements reported in patent US9598423B2 (BRISTOL-MYERS SQUIBB COMPANY, priority 2013, dated 2017).

What was measured:
CK1ε = CK1ε (Homo sapiens (Human), UniProt P49674); assay: CK1ε kinase assay (Caliper LABCHIP electrophoretic separation of fluoresceinated peptide substrate and product); format: biochemical; details: 200 pM CK1ε, 50 μM ATP, 1.5 μM peptide substrate, 22 hours at room temperature; read-out: CK1ε (IC50)
How it was run: (§1)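 Compounds, taken from 10 mM DMSO stocks, are titrated at eleven concentrations. Kinase reactions proceed for 22 hours at room temperature and are quenched with EDTA. Substrate and product are resolved electrophoretically, and IC50 values are fitted by non-linear regression.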

CK1δ = CK1δ (Homo sapiens (Human), UniProt P48730); assay: CK1δ kinase assay (Caliper LABCHIP electrophoretic separation of fluoresceinated peptide substrate and product); format: biochemical; details: 200 pM CK1δ, 50 μM ATP, 1.5 μM peptide substrate, 22 hours at room temperature; read-out: CK1δ (IC50)
Sequence of CK1δ (P48730 whole entry): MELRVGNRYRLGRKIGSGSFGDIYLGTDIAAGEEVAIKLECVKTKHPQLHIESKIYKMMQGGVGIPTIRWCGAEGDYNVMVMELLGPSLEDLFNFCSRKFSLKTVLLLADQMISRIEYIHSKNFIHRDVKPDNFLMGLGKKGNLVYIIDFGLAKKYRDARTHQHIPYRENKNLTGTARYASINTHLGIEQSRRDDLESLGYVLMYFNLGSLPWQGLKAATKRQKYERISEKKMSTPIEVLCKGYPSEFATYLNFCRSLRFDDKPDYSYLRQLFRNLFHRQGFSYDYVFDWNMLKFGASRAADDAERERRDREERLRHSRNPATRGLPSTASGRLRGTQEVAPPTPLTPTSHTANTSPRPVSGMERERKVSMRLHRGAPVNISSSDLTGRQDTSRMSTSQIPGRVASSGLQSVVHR
How it was run: as §1

Sequence of CK1ε (P49674 whole entry): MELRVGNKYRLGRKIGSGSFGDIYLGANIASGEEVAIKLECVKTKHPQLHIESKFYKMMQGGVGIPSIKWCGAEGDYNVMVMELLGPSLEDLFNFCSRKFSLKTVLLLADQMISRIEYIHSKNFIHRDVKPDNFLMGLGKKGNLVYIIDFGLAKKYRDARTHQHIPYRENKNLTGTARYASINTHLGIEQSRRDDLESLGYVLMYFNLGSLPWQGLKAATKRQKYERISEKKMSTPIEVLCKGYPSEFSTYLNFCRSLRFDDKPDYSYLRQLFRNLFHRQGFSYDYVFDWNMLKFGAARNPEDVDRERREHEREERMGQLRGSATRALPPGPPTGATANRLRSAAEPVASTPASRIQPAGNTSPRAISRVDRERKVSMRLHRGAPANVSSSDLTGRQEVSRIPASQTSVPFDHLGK

Row | SMILES | IC50 (CK1ε) [nM] | IC50 (CK1δ) [nM]
1 | COc1ccc(NC(=O)N2CCn3nc(-c4cccc(F)c4)c(C(N)=O)c3C2)cc1Cl [Compound 67, N^5-(3-Chloro-4-methoxyphenyl)-2-(3-fluorophenyl)-6,7-dihydropyrazolo[1,5-a]pyrazine-3,5(4H)-dicarboxamide] | 0.01 to 10 | 0.01 to 10
2 | NC(=O)c1c(-c2cccc(F)c2)nn2c1CN(C(=O)Nc1ccc(-c3ccccc3)cc1)CC2 [Compound 62, N^5-([1,1′-Biphenyl]-4-yl)-2-(3-fluorophenyl)-6,7-dihydropyrazolo[1,5-a]pyrazine-3,5(4H)-dicarboxamide] | 0.01 to 10 | 0.01 to 10
3 | NC(=O)c1c(-c2ccc(Cl)c(Cl)c2)nn2c1CN(C(=O)Nc1cc(F)cc(C(F)(F)F)c1)CC2 [Compound 212, 2-(3,4-Dichlorophenyl)-N^5-(3-fluoro-5-(trifluoromethyl)phenyl)-6,7-dihydropyrazolo [1,5-a]pyrazine-3,5(4H)-dicarboxamide] | 0.01 to 10 | 0.01 to 10
4 | Cc1cc(F)cc(-c2nn3c(c2C(N)=O)CN(C(=O)Nc2ccc(C#N)c(F)c2)CC3)c1 [Compound 224, N^5-(4-Cyano-3-fluorophenyl)-2-(3-fluoro-5-methylphenyl)-6,7-dihydropyrazolo[1,5-a] pyrazine-3,5(4H)-dicarboxamide] | 0.01 to 10 | 0.01 to 10
5 | Cc1nn(C)c2c(Cl)cc(-c3nn4c(c3C(N)=O)CN(C(=O)Nc3ccc(C#N)cc3)CC4)cc12 [Compound 322, 2-(7-Chloro-1,3-dimethyl-1H-indazol-5-yl)-N-(4-cyanophenyl)-6,7-dihydropyrazolo[1,5-a]pyrazine-3,5(4H)-dicarboxamide] | 0.01 to 10 | 0.01 to 10
6 | COC(=O)N1CCC(NC(=O)N2CCn3nc(-c4cccc(F)c4)c(C(N)=O)c3C2)CC1 [Compound 99, Methyl 4-(3-carbamoyl-2-(3-fluorophenyl)-4,5,6,7-tetrahydropyrazolo[1,5-a]pyrazine-5-carboxamido)piperidine-1-carboxylate] | 0.01 to 10 | 0.01 to 10
7 | NC(=O)c1c(-c2ccc(F)c(Cl)c2)nn2c1CN(C(=O)Nc1ccc(Cl)c(Cl)c1)CC2 [Compound 182, 2-(3-Chloro-4-fluorophenyl)-N^5-(3,4-dichlorophenyl)-6,7-dihydropyrazolo[1,5-a] pyrazine-3,5(4H)-dicarboxamide] | 0.01 to 10 | 0.01 to 10
8 | N#Cc1ccc(NC(=O)N2Cc3c(C(N)=O)c(-c4cccc(Cl)c4)nn3C3(CC3)C2)cc1 [Compound A86, 2′-(3-Chlorophenyl)-N^5′-(4-cyanophenyl)-4′H-spiro[cyclopropane-1,7′-pyrazolo[1,5-a]pyrazine]-3′,5′(6′H)-dicarboxamide] | 0.01 to 10 | 0.01 to 10
9 | COc1ccc(NC(=O)N2CCn3nc(-c4ccc(F)c(Cl)c4)c(C(N)=O)c3C2)cc1C(F)(F)F [Compound 189, 2-(3-Chloro-4-fluorophenyl)-N^5-(4-methoxy-3-(trifluoromethyl)phenyl)-6,7-dihydropyrazolo[1,5-a]pyrazine-3,5(4H)-dicarboxamide] | 0.01 to 10 | 0.01 to 10
10 | N#Cc1cccc(NC(=O)N2CCn3nc(-c4ccc(F)c(Cl)c4)c(C(N)=O)c3C2)c1 [Compound 200, 2-(3-Chloro-4-fluorophenyl)-N^5-(3-cyanophenyl)-6,7-dihydropyrazolo[1,5-a] pyrazine-3,5(4H)-dicarboxamide] | 0.01 to 10 | 0.01 to 10
11 | Cc1cc(-c2nn3c(c2C(N)=O)CN(C(=O)Nc2ccc(C#N)c(F)c2)CC3)ccc1F [Compound 243, N^5-(4-Cyano-3-fluorophenyl)-2-(4-fluoro-3-methylphenyl)-6,7-dihydropyrazolo[1,5-a] pyrazine-3,5(4H)-dicarboxamide] | 0.01 to 10 | 0.01 to 10
12 | N#Cc1ccc(NC(=O)N2CCn3nc(-c4cnc(F)c(Cl)c4)c(C(N)=O)c3C2)cc1 [Compound 293, 2-(5-Chloro-6-fluoropyridin-3-yl)-N^5-(4-cyanophenyl)-6,7-dihydropyrazolo[1,5-a] pyrazine-3,5(4H)-dicarboxamide] | 0.01 to 10 | 0.01 to 10
13 | N#Cc1ccc(NC(=O)N2CCn3nc(-c4cc(F)cc(Cl)c4)c(C(N)=O)c3C2)cc1F [Compound 215, 2-(3-Chloro-5-fluorophenyl)-N^5-(4-cyano-3-fluorophenyl)-6,7-dihydropyrazolo[1,5-a]pyrazine-3,5(4H)-dicarboxamide] | 0.01 to 10 | 0.01 to 10
14 | NC(=O)c1c(-c2cccc(Cl)c2)nn2c1CN(C(=O)Nc1ccc(F)cc1)CC2 [Compound 157, 2-(3-Chlorophenyl)-N^5-(4-fluorophenyl)-6,7-dihydropyrazolo[1,5-a]pyrazine-3,5(4H)-dicarboxamide] | 0.01 to 10 | 0.01 to 10
15 | CN(C)c1cccc(-c2nn3c(c2C(N)=O)CN(C(=O)Nc2ccc(C#N)cc2)CC3)c1 [Compound 279, N^5-(4-Cyanophenyl)-2-(3-(dimethylamino)phenyl)-6,7-dihydropyrazolo[1,5-a] pyrazine-3,5(4H)-dicarboxamide] | 0.01 to 10 | 0.01 to 10
16 | NC(=O)c1c(-c2cccc(F)c2)nn2c1CN(C(=O)Nc1cccc(C(F)(F)F)c1)CC2 [Compound 50, 2-(3-Fluorophenyl)-N^5-(3-(trifluoromethyl)phenyl)-6,7-dihydropyrazolo[1,5-a]pyrazine-3,5(4H)-dicarboxamide] | 0.01 to 10 | 0.01 to 10
17 | Cc1cc(NC(=O)N2CCn3nc(-c4cc(Cl)c5ocnc5c4)c(C(N)=O)c3C2)ccc1C#N [Compound 310, 2-(7-Chlorobenzo[d]oxazol-5-yl)-N^5-(4-cyano-3-methylphenyl)-6,7-dihydropyrazolo[1,5-a]pyrazine-3,5(4H)-dicarboxamide] | 0.01 to 10 | 0.01 to 10
18 | NC(=O)c1c(-c2ccc(F)c(Cl)c2)nn2c1CN(C(=O)Nc1cccc(F)c1F)CC2 [Compound 191, 2-(3-Chloro-4-fluorophenyl)-N^5-(2,3-difluorophenyl)-6,7-dihydropyrazolo[1,5-a] pyrazine-3,5(4H)-dicarboxamide] | 0.01 to 10 | 0.01 to 10
19 | Cc1nc2cc(-c3nn4c(c3C(N)=O)CN(C(=O)Nc3ccc(C#N)c(Cl)c3)CC4)cc(Cl)c2o1 [Compound 312, 2-(7-Chloro-2-methylbenzo[d]oxazol-5-yl)-N^5-(3-chloro-4-cyanophenyl)-6,7-dihydropyrazolo[1,5-a]pyrazine-3,5(4H)-dicarboxamide] | 0.01 to 10 | 0.01 to 10
20 | N#Cc1ccc(NC(=O)N2Cc3c(C(N)=O)c(-c4ccc(F)c(Cl)c4)nn3[C@H](C(F)F)C2)cc1F [Compound A22, (S)-2-(3-Chloro-4-fluorophenyl)-N^5-(4-cyano-3-fluorophenyl)-7-(difluoromethyl)-6,7-dihydropyrazolo[1,5-a]pyrazine-3,5(4H)-dicarboxamide] | 0.01 to 10 | 0.01 to 10
21 | NC(=O)c1c(-c2cccc(F)c2)nn2c1CN(C(=O)Nc1ccc(Oc3ccccc3)cc1)CC2 [Compound 58, 2-(3-Fluorophenyl)-N^5-(4-phenoxyphenyl)-6,7-dihydropyrazolo[1,5-a]pyrazine-3,5(4H)-dicarboxamide] | 0.01 to 10 | 0.01 to 10
22 | CC(C)(C)NC(=O)N1CCn2nc(-c3ccc(Cl)c(Cl)c3)c(C(N)=O)c2C1 [Compound 129, N^5-(tert-Butyl)-2-(3,4-dichlorophenyl)-6,7-dihydropyrazolo[1,5-a]pyrazine-3,5(4H)-dicarboxamide] | 0.01 to 10 | 0.01 to 10
